Experimental data taken from PubChem BioAssay AID1963986 (Molecular Pharmacology Branch, DTP, NCI, 2024).

Test system: 171881-019-R-J1-PDC tumor spheroid viability
Experiment: Anticancer human tumor 171881-019-R-J1-PDC patient-derived invasive breast carcinoma cell line growth inhibition [PI3K]
Settings: spheroids with HUVEC and MSC; for IC50: curve of first compound; for viability, T/C: stronger effect = lower value
Method in brief: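 Tumor cells were combined with HUVEC and MSCs into spheroids, then dosed with PI3K-inhibitor combinations over half-log ranges capped near clinical Cmax or 10 microM.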
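Also: spheroids exposed to compound for 7 days before viability read.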
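For viability, T/C in this document: 100% = DMSO vehicle-treated spheroids.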

In the case of CNC(=O)c1ccc(N2C(=S)N(c3ccc(C#N)c(C(F)(F)F)c3)C(=O)C2(C)C)cc1F + CC(Nc1ncnc2nc[nH]c12)c1cc2cccc(Cl)c2c(=O)n1-c1ccccc1, the IC50 (second compound 0.0316 µM) is reported as over 10000 nM, the IC50 (second compound 0.1 µM) is reported as over 10000 nM and the IC50 (second compound 0.316 µM) is reported as over 10000 nM. It also gave an IC50 (second compound 1 µM) of over 10000 nM, an IC50 (second compound 3.16 µM) of over 10000 nM and an IC50 (second compound 10 µM) of 4880 nM. It also gave a viability, T/C (second compound 0.0316 µM, first compound 0.0316 µM) of 91.6%, a viability, T/C (second compound 0.0316 µM, first compound 0.1 µM) of 78.6% and a viability, T/C (second compound 0.0316 µM, first compound 0.316 µM) of 80.1%. For the same compound, the viability, T/C (second compound 0.0316 µM, first compound 1 µM) was 86.4%, the viability, T/C (second compound 0.0316 µM, first compound 3.16 µM) was 86.1% and the viability, T/C (second compound 0.0316 µM, first compound 10 µM) was 71.2%. For the same compound, the viability, T/C (second compound 0.1 µM, first compound 0.0316 µM) was 88.8%, the viability, T/C (second compound 0.1 µM, first compound 0.1 µM) was 85.9% and the viability, T/C (second compound 0.1 µM, first compound 0.316 µM) was 78.5%. The viability, T/C (second compound 0.1 µM, first compound 1 µM) was 85.6%, the viability, T/C (second compound 0.1 µM, first compound 3.16 µM) was 83.3% and the viability, T/C (second compound 0.1 µM, first compound 10 µM) was 69.8%. The viability, T/C (second compound 0.316 µM, first compound 0.0316 µM) was 92.1%, the viability, T/C (second compound 0.316 µM, first compound 0.1 µM) was 93.3% and the viability, T/C (second compound 0.316 µM, first compound 0.316 µM) was 85.3%. The viability, T/C (second compound 0.316 µM, first compound 1 µM) was 92.4%, the viability, T/C (second compound 0.316 µM, first compound 3.16 µM) was 77% and the viability, T/C (second compound 0.316 µM, first compound 10 µM) was 69.9%. The viability, T/C (second compound 1 µM, first compound 0.0316 µM) was 89.9%, the viability, T/C (second compound 1 µM, first compound 0.1 µM) was 100% and the viability, T/C (second compound 1 µM, first compound 0.316 µM) was 85.2%. For the same compound, the viability, T/C (second compound 1 µM, first compound 1 µM) was 86.9%, the viability, T/C (second compound 1 µM, first compound 3.16 µM) was 93.1% and the viability, T/C (second compound 1 µM, first compound 10 µM) was 70.7%. The viability, T/C (second compound 3.16 µM, first compound 0.0316 µM) was 87.2%, the viability, T/C (second compound 3.16 µM, first compound 0.1 µM) was 85.9% and the viability, T/C (second compound 3.16 µM, first compound 0.316 µM) was 83.7%. For the same compound, the viability, T/C (second compound 3.16 µM, first compound 1 µM) was 80.1%, the viability, T/C (second compound 3.16 µM, first compound 3.16 µM) was 80.9% and the viability, T/C (second compound 3.16 µM, first compound 10 µM) was 64.5%. For the same compound, the viability, T/C (second compound 10 µM, first compound 0.0316 µM) was 61.4%, the viability, T/C (second compound 10 µM, first compound 0.1 µM) was 58.2% and the viability, T/C (second compound 10 µM, first compound 0.316 µM) was 60.4%. It also gave a viability, T/C (second compound 10 µM, first compound 1 µM) of 57.2%, a viability, T/C (second compound 10 µM, first compound 3.16 µM) of 54% and a viability, T/C (second compound 10 µM, first compound 10 µM) of 43.7%.

Cn1cnc2c(F)c(Nc3ccc(Br)cc3Cl)c(C(=O)NOCCO)cc21 + CC(Nc1ncnc2nc[nH]c12)c1cc2cccc(Cl)c2c(=O)n1-c1ccccc1 showed an IC50 (second compound 0.0316 µM) of 628 nM, an IC50 (second compound 0.1 µM) of 664 nM and an IC50 (second compound 0.316 µM) of 547 nM. For the same compound, the IC50 (second compound 1 µM) was 423 nM, the IC50 (second compound 3.16 µM) was 143 nM and the IC50 (second compound 10 µM) was under 9.49 nM. For the same compound, the viability, T/C (second compound 0.0316 µM, first compound 0.00949 µM) was 93.5%, the viability, T/C (second compound 0.0316 µM, first compound 0.03 µM) was 84% and the viability, T/C (second compound 0.0316 µM, first compound 0.0949 µM) was 89.2%. The viability, T/C (second compound 0.0316 µM, first compound 0.3 µM) was 63.5%, the viability, T/C (second compound 0.0316 µM, first compound 0.949 µM) was 42.2% and the viability, T/C (second compound 0.0316 µM, first compound 3 µM) was 19.5%. The viability, T/C (second compound 0.1 µM, first compound 0.00949 µM) was 87.3%, the viability, T/C (second compound 0.1 µM, first compound 0.03 µM) was 84.7% and the viability, T/C (second compound 0.1 µM, first compound 0.0949 µM) was 75%. It also gave a viability, T/C (second compound 0.1 µM, first compound 0.3 µM) of 70.8%, a viability, T/C (second compound 0.1 µM, first compound 0.949 µM) of 40.7% and a viability, T/C (second compound 0.1 µM, first compound 3 µM) of 18.3%. It also gave a viability, T/C (second compound 0.316 µM, first compound 0.00949 µM) of 96.6%, a viability, T/C (second compound 0.316 µM, first compound 0.03 µM) of 91% and a viability, T/C (second compound 0.316 µM, first compound 0.0949 µM) of 77.2%. For the same compound, the viability, T/C (second compound 0.316 µM, first compound 0.3 µM) was 63.2%, the viability, T/C (second compound 0.316 µM, first compound 0.949 µM) was 38.6% and the viability, T/C (second compound 0.316 µM, first compound 3 µM) was 17.5%. The viability, T/C (second compound 1 µM, first compound 0.00949 µM) was 88.9%, the viability, T/C (second compound 1 µM, first compound 0.03 µM) was 74.4% and the viability, T/C (second compound 1 µM, first compound 0.0949 µM) was 71.8%. The viability, T/C (second compound 1 µM, first compound 0.3 µM) was 57.9%, the viability, T/C (second compound 1 µM, first compound 0.949 µM) was 34.6% and the viability, T/C (second compound 1 µM, first compound 3 µM) was 15.4%. It also gave a viability, T/C (second compound 3.16 µM, first compound 0.00949 µM) of 74.4%, a viability, T/C (second compound 3.16 µM, first compound 0.03 µM) of 65.3% and a viability, T/C (second compound 3.16 µM, first compound 0.0949 µM) of 55.9%. For the same compound, the viability, T/C (second compound 3.16 µM, first compound 0.3 µM) was 40.5%, the viability, T/C (second compound 3.16 µM, first compound 0.949 µM) was 25.8% and the viability, T/C (second compound 3.16 µM, first compound 3 µM) was 9.87%. The viability, T/C (second compound 10 µM, first compound 0.00949 µM) was 46.2%, the viability, T/C (second compound 10 µM, first compound 0.03 µM) was 44.2% and the viability, T/C (second compound 10 µM, first compound 0.0949 µM) was 37.8%. The viability, T/C (second compound 10 µM, first compound 0.3 µM) was 31.2%, the viability, T/C (second compound 10 µM, first compound 0.949 µM) was 14.9% and the viability, T/C (second compound 10 µM, first compound 3 µM) was 4.91%.
